# What was measured:
# [1] = tested on: zebrafish (Danio rerio) embryo; assay: Zebrafish embryo acute toxicity test; type: in vivo; conditions: for Malformations (No. embryos with malformations / fertilized embryos) / Mortality (No. of dead embryos / fertilized embryos) / Unaffected embryos (No. / fertilized embryos): 96 h
# Method: The zebrafish (Danio rerio) embryo acute toxicity test was carried out to assess the impact of RU-SDX on early embryo development as previously described ([Anghel et al., 2020]). RU-SDX was assessed at 0.2, 2 and 20 μM, while the bumped kinase inhibitor BKI-1748 (applied at 50 μM) was used as a positive control resulting in 100% mortality of zebrafish embryos ([Anghel et al., 2020]). For each test- and control condition, a 24 well plate containing 24 fertilized eggs (1 egg/well) was used. Negative control plates contained 1 ml of E3 medium/osmosis water, whereas eggs in solvent control plates were incubated in E3 medium containing 0.01% DMSO ([Anghel et al., 2020]). For each treatment, a survival rate was calculated that reflected the degree of either embryo death or malformations during the first 96 h of development in relation to eggs maintained without compound.
# [2] = tested on: T. gondii β-gal tachyzoites; assay: T. gondii β-Gal tachyzoite proliferation in HFF monolayers (β-galactosidase fluorometric assay); type: cell-based, Toxoplasma gondii
# Method: Effects of drugs on the proliferative capacity of T. gondii tachyzoites were investigated using a transgenic T. gondii RH strain constitutively expressing β-Galactosidase (T. gondii β-Gal ([Dc et al., 1997]);). Assays were carried out in 96 well plates in the presence or absence of the different compounds. For the quantification of β-Galactosidase activity, a fluorometric assay was applied as previously described ([Desiatkina et al., 2021]; [Păunescu et al., 2021]).
# T. gondii ShSp1 oocysts = assay: In vivo efficacy in CD1 mice orally infected with T. gondii ShSp1 oocysts (qPCR parasite load)
# Excerpt: Female CD1 mice, 6 weeks of age, were purchased from Charles River (Sulzberg, Germany). They were housed in temperature-controlled animal facilities and were randomly distributed into 4 groups (8 mice/group, with 4 mice per cage), and food and water ad libitum. At the age of 8 weeks, mice were experimentally infected by peroral application of 120 TgShSp1 (type II) oocysts ([Imhof et al., 2021]). Placebo and RU-SDX treatments were started at 3 days p. i., with mice being treated orally by gavage. Group 1 (placebo control) received 100 μl corn oil supplemented with 10% DMSO, while group 2 (treatment group) was administered 5 mg/kg RU-SDX solubilized in 100 μl corn oil/10 % DMSO. These treatments were repeated on days 5, 7, 9 and 11 p. i. During the entire experiment mice were monitored for potential health issues at least twice per day. All mice were sacrificed at 30 days p. i. Brain, eyes, heart, and liver were collected and stored at −20 °C for subsequent DNA extraction and quantification of T. gondii load by quantitative PCR (qPCR).
# Genomic DNA was extracted from the collected samples using the NucleoSpin DNA RapidLyze Kit (Macherey-Nagel, Oensingen, Switzerland) and DNA concentrations were quantified by the QuantiFluor double-stranded DNA (dsDNA) system (Promega, Madison, WI, USA) as previously described ([Imhof et al., 2021]). DNA concentrations were adjusted to 5 ng/μl, and qPCR reactions were performed in a final volume of 10 μl containing 1x SensiFast master mix (Bioline, Meridian Bioscience), 0.5 μM of reverse and forward primers, 0.1 μM of 529rpeQ-P probe, 0.3 mM dUTP, and one unit of heat-labile Uracil DNA Glycosylase (UDG) ([Hänggeli et al., 2022]). Amplification was performed in the Bio-Rad CFX 96 QPCR instRUment (Biorad) using the following thermal profile: (1) initial incubation of 10 min at 42 °C, followed by (2) denaturation step of 5 min at 95 °C and (3) 50 cycles of two-step amplification (10 s at 95 °C and 20 s at 62 °C). For quantification, a standard curve was made based on a 10-fold serial dilution of DNA from T. gondii, equivalent to tachyzoite numbers ranging from 1 × 10^4 to 1 per 4 μl. The parasite load was expressed as number of tachyzoites per 20 ng of DNA. Statistical analyses were performed using GraphPad Prism version 5.0 (GraphPad Software, La Jolla, CA, USA). Comparisons of the parasite burdens between groups were conducted with the non-parametric Kruskal-Wallis test, followed by the Mann-Whitney-U test.
compound,measurement,setting,value
CC(C)(C)c1ccc(C[S-])cc1.CC(C)(C)c1ccc(C[S-])cc1.COc1ncnc(NS(=O)(=O)c2ccc(NC(=O)Cc3ccc([S-])cc3)cc2)c1OC.Cc1ccc(C(C)C)cc1.Cc1ccc(C(C)C)cc1.[Cl-].[Ru+2].[Ru+2] [RU-SDX],survival score (surviving embryos without malformations),[1]; 0.2 μM,95%
same,Malformations (No. embryos with malformations / fertilized embryos),[1]; 0.2 μM,0/20
same,Mortality (No. of dead embryos / fertilized embryos),[1]; 0.2 μM,1/20
same,Unaffected embryos (No. / fertilized embryos),[1]; 0.2 μM,19/20
same,survival score (surviving embryos without malformations),[1]; 2 μM,90%
same,Malformations (No. embryos with malformations / fertilized embryos),[1]; 2 μM,1/20
same,Mortality (No. of dead embryos / fertilized embryos),[1]; 2 μM,1/20
same,Unaffected embryos (No. / fertilized embryos),[1]; 2 μM,18/20
same,survival score (surviving embryos without malformations),[1]; 20 μM,no surviving embryos
same,Malformations (No. embryos with malformations / fertilized embryos),[1]; 20 μM,0/20
same,Mortality (No. of dead embryos / fertilized embryos),[1]; 20 μM,20/20
same,Unaffected embryos (No. / fertilized embryos),[1]; 20 μM,0/20
same,time of peak of mortality of zebrafish embryos,"[1]; 20 μM, h of embryogenesis",72 h
same,T. gondii proliferation in relation to the non-treated control,[2]; 0.1 μM,77%
same,T. gondii proliferation in relation to the non-treated control,[2]; 1 μM,2%
same,proliferation (% of control ± SD),[2]; 2.5 μM,^∗∗∗0 ± 0%
same,proliferation (% of control ± SD),[2]; 5 μM,^∗∗∗0 ± 0%
same,IC50,[2]; drug treatment applied concomitantly to infection of HFF monolayers,112 nM
same,IC50,"[2]; drug treatment initiated 3 h post infection, 95% CI in brackets",145 nM
same,IC50,"[2]; drug treatment initiated concomitantly to infection, 95% CI in brackets",112 nM
same,IC50,[2]; drug treatment on already infected HFF,145 nM
same,IC50,"[2]; tachyzoites grown in HFF monolayers, drug added concomitantly to or after infection",< 150 nM
same,cerebral parasite load compared to placebo control group,"T. gondii ShSp1 oocysts; 5 mg/kg oral gavage, 5 treatments from day 3 p.i., brain at 30 days p.i., P = 0.37",did not result in any reduction
same,parasite load in eyes compared to placebo control group,"T. gondii ShSp1 oocysts; 5 mg/kg oral gavage, 5 treatments from day 3 p.i., eyes at 30 days p.i.",significantly reduced
same,parasite load in the heart compared to placebo control group,"T. gondii ShSp1 oocysts; 5 mg/kg oral gavage, 5 treatments from day 3 p.i., heart at 30 days p.i.",significantly reduced
same,toxicity by clinical signs in treated mice,"T. gondii ShSp1 oocysts; 5 mg/kg oral in corn oil/10% DMSO, 5 treatments",not toxic

# Source: publication PMC11087982, “In vitro and in vivo activities of a trithiolato-diRuthenium complex conjugated with sulfadoxine against the apicomplexan parasite Toxoplasma gondii” (International Journal for Parasitology: Drugs and Drug …, 2024)
